{"source": "patent US11135196B1", "about": "“Pharmaceutical composition and its use to inhibit membrane ACE2 expression” (priority 2020, dated 2021)", "key": {"ACE2 receptor [1]": {"system": "ACE2 receptor", "assay": "ACE2 ELISA assay in Human Small Airways Epithelial Cells (SAEC), 6 days", "conditions": "for decrease of ACE2 expression: FIG. 5A", "quoted_text": "Human Small Airways Epithelial Cells (SAEC), purchased from ATCC, (Manassas, Va., USA) were cultured in Airways Epithelial Cells growth medium (ATCC) in plastic flasks at 37° C. and 5% CO2. For the experiments, the cells (passage 5-7) were plated to collagen-covered 96-well plates in 100 μL/well growth medium and were grown to confluent layer for 4 to 7 days.\nFor the experiments, cells were supplemented with indicated doses of tested compounds in 100 μL/well of cell growth medium for 6 days with fresh media supplementations every 2 to 3 days. […] Culture plate wells were washed twice with phosphate buffered saline (PBS) and fixed with 3% formaldehyde/0.5% Triton X-100/PBS solution for 1 hour at 4° C., then washed 4 times with PBS. Two-hundred microliter of 1% bovine serum albumin-BSA (Sigma-Aldrich, St. Louis, Mo., USA) in PBS was added and the plate was incubated at 4° C. overnight. Rabbit polyclonal anti-ACE-2 antibodies (Sigma Aldrich, St. Louis, Mo., USA) were added in 100 μL/well 1% BSA/PBS solution for 1.5 hours incubation at room temperature (RT). After 3 wash cycles with 0.1% BSA/PBS wells were supplied with 100 μL/well of anti-rabbit IgG antibodies conjugated with horse radish peroxidase (HRP, Sigma, St. Louis, Mo., USA) for 1 hour at RT. After 3 wash cycles with 0.1% BSA/PBS the HRP activity retained was determined by incubation with 100 μL/well TMB substrate solution (Sigma-Aldrich, St. Louis, Mo., USA) for 20 minutes. at RT, followed by the addition of 50 μL/well of 1N H2504 and optical density measurement at 450 nm with microplate reader (Molecular Devices, San Jose, Calif., USA).\nResults are expressed as a percentage of experimental addition—free control (mean±SD, n=6). Non-specific control (wells incubated without anti-ACE2 antibodies) mean value (n=6) was subtracted from all sample values."}, "SAEC": {"system": "SAEC", "assay": "Cytotoxic effects on SAEC", "type": "cell-based, human"}, "ACE2 mRNA [2]": {"system": "ACE2 mRNA", "assay": "qRT-PCR of ACE2 gene expression in SAEC", "type": "cell-based, human", "conditions": "1.0 mM, 6 days, normalised to β-actin", "experimental": "(§1) After 6 days, total RNA was isolated using RNeasy Plus Mini Kit (Qiagen, Germantown, Md., USA). Next, 2500 ng of each isolate was transcribed in cDNA using RT^2 HT First Strand Kit (Qiagen, Germantown, Md., USA) and subjected to qRTPCR using specific primers for ACE2 (forward primer, SEQ ID. NO. 1-5′-[…] -3′; and reverse primer, SEQ ID. NO. 2-5′-[…] -3) and β-actin (forward primer, SEQ ID. NO. 3-5′-[…] -3′; and reverse primer, SEQ ID. NO. 4-5′-[…] -3′). The PCR was performed with a QuantiTect SYBR® Green PCR Kit as the source of 2.5 mM Mg2+, deoxynucleotides and HotStarTaq DNA polymerase, in addition to each primer used at a concentration of 0.3 μM in a 50 μL qPCR mixture (Qiagen, Germantown, Md., USA) in a BioRad CFX instrument (BioRad, Hercules, Calif., USA). The qPCR cycler conditions were programmed according to the manufacturer's recommendations and were as follows: an activation step at 95° C. for 15 minutes, 40 cycles of: denaturation at 94° C. for 15 seconds, annealing at 60° C. for 30 seconds, and extension at 72° C. for 30 seconds. To verify the specificity and identity of the qPCR product, melting curve analyses were performed. The amount of β-actin cDNA was used to normalize the sample amounts used for determinations. All samples were tested in duplicate PCR reactions and the mean of the reactions was used for calculating the expression levels."}, "ACE2 protein [3]": {"system": "ACE2 protein", "assay": "Western blot of ACE2 protein expression in HMEC", "conditions": "1.0 mM, 6 days", "quoted_text": "(§2) Human Small Airways Epithelial Cells (SAEC), purchased from ATCC, (Manassas, Va., USA) were cultured in Airways Epithelial Cells growth medium (ATCC) in plastic flasks at 37° C. and 5% CO2. For the experiments, the cells (passage 5-7) were plated to collagen-covered 96-well plates in 100 μL/well growth medium and were grown to confluent layer for 4 to 7 days. Human Microvascular Endothelial Cells isolated from lung (HMEC), purchased from Lonza, (Hayward, Calif., USA) were cultured in EGM-2 MV growth medium (Lonza) in plastic flasks at 37° C. and 5% CO2. […]\n(§3) Western blot: SAEC and HMEC were plated on 6-well plates and supplemented with 0.3, 0.6, 0.8, and 1 mM ascorbic acid, respectively. […] The protein concentration was measured by the Dc protein assay (Bio-Rad, Hercules, Calif., USA). Fifty microgram per well of protein was separated on 8% to 16% gradient SDS-PAGE gels (ie, Tris-based electrophoresis using standard Laemmle's method without (3-ME addition to sample buffer) and transferred to a PVDF membrane. Proteins were detected with commercially available anti-ACE-2 monoclonal antibody diluted 1:250 (R&D, Minneapolis, Minn., USA) and anti-β-actin antibody as a loading control (Cell Signaling, Danvers, Mass., USA)."}, "ACE2 receptor [4]": {"system": "ACE2 receptor", "assay": "ACE-2 ELISA assay in Human Aortic Endothelial Cells, 7 days supplementation", "type": "cell-based", "conditions": "50-100 mcM, FIG. 1", "experimental": "Cell supplementation with ascorbic acid: Cells were supplemented with indicated doses of ascorbic acid (Sigma) in EGM-2 for 7 days with six repetitions for each dose. Experimental medium was changed every 2-3 days with freshly prepared ascorbic acid solution in EGM-2.\nMouse monoclonal anti ACE-2 antibody (Santa Cruz Biotechnology) was added in 100 mcl 1% BSA/PBS for 1.5 h incubation at room temperature (RT). […] After three wash cycles with 0.1% BSA/PBS retained HRP activity was determined by incubation 100 mcl TMB substrate solution (Sigma) for 20 min at RT and addition of 50 mcl of 1N H2SO4 by measuring optical density at 450 nm with micro plate reader (Molecular Devices). Results are expressed as percentage of ascorbate-free Control (mean+/−SD, n=6)."}, "ACE2 mRNA [5]": {"system": "ACE2 mRNA", "assay": "qRT-PCR of ACE2 gene expression in HMEC", "type": "cell-based, human", "conditions": "1.0 mM, 6 days, normalised to β-actin", "experimental": "as §1"}, "ACE2 protein [6]": {"system": "ACE2 protein", "assay": "Western blot of ACE2 protein expression in SAEC", "conditions": "1.0 mM, 6 days", "quoted_text": "as §2, §3"}}}
{"smiles": "CCCCCCCCCCCCCCCC(=O)OC[C@H](O)[C@H]1OC(=O)C(O)=C1O", "note": "[ascorbyl palmitate]", "values": [{"measurement": "inhibition of ACE2 expression", "setting": "ACE2 receptor [1]; 75 μM, FIG. 5B", "result": 50, "unit": "%"}, {"measurement": "concentrations showing cytotoxic effects", "setting": "SAEC", "result": "> 100", "unit": "µM"}]}
{"smiles": "O=C1O[C@H]([C@@H](O)CO)C(O)=C1O", "note": "[ascorbic acid]", "values": [{"measurement": "decrease of ACE2 expression", "setting": "ACE2 receptor [1]; 0.6 mM", "result": "about 18%"}, {"measurement": "decrease of ACE2 expression", "setting": "ACE2 receptor [1]; 1.0 mM", "result": 27, "unit": "%"}, {"measurement": "decrease of membrane expression of ACE2", "setting": "ACE2 receptor [1]; 800 mcM, FIG. 4", "result": 27, "unit": "%"}, {"measurement": "ACE2 gene expression decreased by (fold)", "setting": "ACE2 mRNA [2]", "result": 0.61, "unit": "fold"}, {"measurement": "reduction of ACE2 protein (Western blot)", "setting": "ACE2 protein [3]", "result": 60, "unit": "%"}, {"measurement": "reduction of ACE2 protein (Western blot)", "setting": "ACE2 protein [3]; listed as ascorbate", "result": "significantly lower"}, {"measurement": "suppression of the expression of the ACE2 receptor", "setting": "ACE2 receptor [4]", "result": "over 50%"}, {"measurement": "ACE2 gene expression decreased by (fold)", "setting": "ACE2 mRNA [5]", "result": 0.54, "unit": "fold"}, {"measurement": "reduction of ACE2 protein (Western blot)", "setting": "ACE2 protein [6]", "result": 55, "unit": "%"}, {"measurement": "reduction of ACE2 protein (Western blot)", "setting": "ACE2 protein [6]; listed as ascorbate", "result": "significantly lower"}]}
{"smiles": "C=CCCCCCCCCC(=O)O", "note": "[10-undecanoic acid]", "values": [{"measurement": "decrease of ACE2 expression, individual effect", "setting": "ACE2 receptor [1]; concentration not given, FIG. 9", "result": 18, "unit": "%"}]}
{"smiles": "CC(=O)N[C@@H](CS)C(=O)O", "note": "[NAC]", "values": [{"measurement": "inhibition of ACE2 expression, used individually", "setting": "ACE2 receptor [1]; 2 mM", "result": 18, "unit": "%"}]}
{"smiles": "O=c1cc(-c2ccccc2)oc2cc(O)c(O)c(O)c12", "note": "[baicalein]", "values": [{"measurement": "inhibition of ACE2 expression, used individually", "setting": "ACE2 receptor [1]; 25 μM, compared to no ascorbate control, FIG. 7", "result": 75, "unit": "%"}]}
{"smiles": "O=c1c(O)cc([C@H]2Oc3cc(O)cc(O)c3C[C@H]2O)cc2c([C@H]3Oc4cc(O)cc(O)c4C[C@H]3O)cc(O)c(O)c12", "note": "[Theaflavin]", "values": [{"measurement": "inhibition of ACE2 expression, used individually", "setting": "ACE2 receptor [1]; 33 μg/mL and 50 μM respectively, FIG. 10", "result": "about 50%"}]}
